According to paper PMC12354831 (Cell Death Discovery, 2025):
Where “and” joins values, the source holds several entries; their conditions need not be identical. Identical values can stand only once. Like-named read-outs stand apart in the source and are kept apart here.

Legend:
GLUT3 mutants [1] = assay: TMZ/CAPE uptake by U251-MG cells stably expressing GLUT3 mutants vs WT GLUT3 (LC-MS/MS); type: in vitro ADME, human; conditions: U251-MG cells expressing GLUT3 mutants with reduced affinity vs WT GLUT3
Protocol: A total of 6 × 10^6 cells were seeded into each well of a 6 cm Petri dish and cultured at 37 °C in a humidified atmosphere containing 5% CO2 for 8 h. The cells were then washed twice with PBS (137 mM NaCl, 2.7 mM KCl, 10 mM Na2HPO4, 1.8 mM KH2PO4, pH 7.4) and incubated in transport buffer (140 mM NaCl, 5 mM KCl, 2 mM MgCl2, 2 mM CaCl2, 30 mM Tris-HCl, pH 7.4) for 15 min at 37 °C. […] Cell supernatants were collected and stored at 4 °C for subsequent extraction. The harvested cells were washed three times with PBS and extracted with 500 µL of 80% methanol for 30 min at −80 °C. The cell lysate was then centrifuged at 14,000 × g for 5 min at 4 °C, followed by 2 min of sonication. The supernatant was transferred to a new centrifuge tube. For LC-MS/MS analysis, the cell supernatants and cell lysates were diluted at a specific ratio. A total of 100 µL of each sample was mixed with 100 µL of acetonitrile (or standard reagent) and 300 µL of internal standard solution (^2H3-TMZ 100 ng/mL and ^2H11-CAPE 20 ng/mL dissolved in acetonitrile). […] Quality control (QC) samples were prepared and analyzed alongside the experimental samples to monitor the stability and repeatability of the instrument. QC samples were inserted regularly and analyzed every 6–12 samples. Each experiment was repeated 5–6 times. […]

GLUT3 [2] = target: T1, GLUT3 (Homo sapiens, UniProt P11169); assay: Microscale thermophoresis (MST) binding assay, GLUT3-GFP in cell lysates
T1 construct: expressed in transfected cells
T1 sequence (P11169 1-496): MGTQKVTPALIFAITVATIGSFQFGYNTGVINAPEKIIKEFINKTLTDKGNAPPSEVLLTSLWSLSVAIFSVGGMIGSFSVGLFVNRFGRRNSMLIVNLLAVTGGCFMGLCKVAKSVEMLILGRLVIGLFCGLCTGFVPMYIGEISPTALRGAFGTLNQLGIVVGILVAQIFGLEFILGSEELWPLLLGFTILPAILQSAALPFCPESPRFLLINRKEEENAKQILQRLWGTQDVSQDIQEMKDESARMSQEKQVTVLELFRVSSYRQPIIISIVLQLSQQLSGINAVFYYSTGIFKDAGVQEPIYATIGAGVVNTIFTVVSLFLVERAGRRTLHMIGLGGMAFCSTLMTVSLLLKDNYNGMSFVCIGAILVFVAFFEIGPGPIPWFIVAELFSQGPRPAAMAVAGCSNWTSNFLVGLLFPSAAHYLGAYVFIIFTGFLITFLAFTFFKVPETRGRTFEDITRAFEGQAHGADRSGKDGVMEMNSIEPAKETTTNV
Protocol: (§1) Data from three independent measurements were analyzed using MO. Affinity Analysis software (version 2.1.3, NanoTemper Technologies).

GLUT3 [3] = target: T1, GLUT3; assay: Cellular uptake of TMZ and CAPE by LC-MS/MS, GLUT3 OE U251-MG cells; type: in vitro ADME; conditions: for decrease of extracellular drug concentration: GLUT3 OE U251-MG cells, remaining extracellular drug after uptake; for increase of drug uptake by GLUT3 OE: U251-MG cells, 200 μM drug, 37 °C, 15 min, intracellular level vs control
Protocol: (§2) A total of 6 × 10^6 cells were seeded into each well of a 6 cm Petri dish and cultured at 37 °C in a humidified atmosphere containing 5% CO2 for 8 h. The cells were then washed twice with PBS (137 mM NaCl, 2.7 mM KCl, 10 mM Na2HPO4, 1.8 mM KH2PO4, pH 7.4) and incubated in transport buffer (140 mM NaCl, 5 mM KCl, 2 mM MgCl2, 2 mM CaCl2, 30 mM Tris-HCl, pH 7.4) for 15 min at 37 °C. […] Cell supernatants were collected and stored at 4 °C for subsequent extraction. The harvested cells were washed three times with PBS and extracted with 500 µL of 80% methanol for 30 min at −80 °C. The cell lysate was then centrifuged at 14,000 × g for 5 min at 4 °C, followed by 2 min of sonication. The supernatant was transferred to a new centrifuge tube. For LC-MS/MS analysis, the cell supernatants and cell lysates were diluted at a specific ratio. A total of 100 µL of each sample was mixed with 100 µL of acetonitrile (or standard reagent) and 300 µL of internal standard solution (^2H3-TMZ 100 ng/mL and ^2H11-CAPE 20 ng/mL dissolved in acetonitrile). […] Quality control (QC) samples were prepared and analyzed alongside the experimental samples to monitor the stability and repeatability of the instrument. QC samples were inserted regularly and analyzed every 6–12 samples. Each experiment was repeated 5–6 times.
(§3) LC-MS/MS analyses were performed using a high-performance liquid chromatography (HPLC) system (Shimadzu, LC-20A) coupled to a […] (ABSciex, API4000 QTRAP). The samples were separated on a 2.1 × 100 mm ACQUITY Premier BEH C18 1.7 µm VanGuard™ FIT column (Waters, Ireland). The mobile phases consisted of: Mobile phase A (0.1% formic acid and 2.5 mM ammonium acetate in water) and Mobile phase B (0.1% formic acid and 2.5 mM ammonium acetate in acetonitrile). Gradient elution was employed, with the flow rates and gradient conditions detailed in Table S2.
(§4) The mass spectrometry conditions were as follows: Ion source: electrospray ionization (ESI); Detection mode: positive ion mode; Scanning method: multiple reaction monitoring (MRM); Spray voltage (IS): 5500 V; Ion source temperature (TEM): 555 °C; Gas curtain pressure (CUR): 25 psi; Collision activation dissociation (CAD): MEDIUM; Nebulizer gas pressure (GS1): 55 psi; Auxiliary gas pressure (GS2): 55 psi.

U251-MG cells = assay: CCK-8 IC50 in U251-MG cells expressing GLUT3 mutants vs WT; type: cell-based, human; conditions: GLUT3 Q159A vs GLUT3 WT
Protocol: The GBM cell line was seeded into a 96-well plate at a density of 5 × 10^3 cells per well and incubated at 37 °C in a humidified atmosphere containing 5% CO2 overnight. […] Following 24 h of drug treatment, 10 µL of CCK-8 reagent was added to each well, and the cells were incubated for an additional 1 h at 37 °C. The absorbance was then measured at 450 nm using a microplate reader.
In this study, the experimental groups were designated as Group A (cells treated with temozolomide (TMZ) or capecitabine (CAPE)), the control group as Group B (cells treated with DMSO), and the blank control group as Group C ([…]). The cell viability rate was calculated using the formula: (A-C)/(B-C) × 100%, where A, B, and C represent the absorbance values of Group A, Group B, and Group C, respectively.

[4] = CC50 determination (CCK-8) in normal astrocyte cell line SVGp12; type: cell-based; conditions: human, SVGp12 normal astrocyte cells, SVGp12 normal astrocytes
Protocol: The human normal astrocyte cell line SVGp12 was seeded in a 96-well plate at a density of 5 × 10^3 cells per well and incubated overnight at 37 °C in a humidified atmosphere containing 5% CO2. […] After the treatment period, 10 μL of CCK-8 reagent was added to each well, followed by an additional incubation for 1 h under the same conditions. The absorbance at 450 nm was measured using a microplate reader. In this study, the experimental group treated with TMZ or CAPE was designated as group A, the control group treated with DMSO as group B, and the blank control group without cells as group C. The cell viability rate was calculated using the formula: (A-C)/(B-C) × 100%, where A, B, and C represent the absorbance values of group A, group B, and group C, respectively.

GLUT3 mutants [5] = assay: MST binding assay, GLUT3 mutants taken together vs WT; design: species or system human
Protocol: as §1

GLUT3 [6] = target: T1, GLUT3; assay: Cellular uptake of TMZ and CAPE by LC-MS/MS, GLUT3 KD U343-MG cells; type: in vitro ADME; conditions: for extracellular drug level higher than controls: GLUT3-KD U343-MG cells, remaining extracellular drug after uptake; for reduction of drug uptake by GLUT3 KD: U343-MG cells, 200 μM drug, 37 °C, 15 min, intracellular level vs control
Protocol: as §2, §3, §4

[7] = across the tested GBM cell lines (U343-MG, U251-MG), read-out: Kd values

Row | SMILES | reduction in drug uptake (GLUT3 mutants [1]) | Kd (GLUT3 [2]; [7]) | decrease of extracellular drug concentration (GLUT3 [3]) | increase of drug uptake by GLUT3 OE (GLUT3 [3]) | fold increase in IC50 (U251-MG cells) | CC50 at 24 h [4] | Kd increase vs WT (GLUT3 mutants [5]; mutants T28A, S71A, Q281A, N286A, W386A, and G417A) | extracellular drug level higher than controls (GLUT3 [6]) | reduction of drug uptake by GLUT3 KD (GLUT3 [6]) | Kd (GLUT3 [2]; U251-MG lysate, GLUT3-GFP, pH 6.8, read-out: Kd) | Kd increase vs WT (GLUT3 mutants [5]; seven mutants)
1 | Cn1nnc2c(C(N)=O)ncn2c1=O [TMZ] | 60–70% | 0.3 to 0.7 µM | 7.7% | ~ 70% | 1.3 fold | 104 ± 21.1 µM | > 1000 fold | 3% | 54.3% |  | 
2 | CCCCCOC(=O)Nc1nc(=O)n([C@@H]2O[C@H](C)[C@@H](O)[C@H]2O)cc1F [CAPE, capecitabine] | 75–95% | 1 to 3 µM and 0.9 to 3.5 µM | 5.4% | ~ 70% | 3.6 fold | 163 ± 31.8 µM |  | 12% | 65.5% | 1.8 ± 1.1 µM | > 1000 fold
